Reference: PubChem BioAssay (NCI)
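Five concentrations, 48 hours, 96-well plates. The concentration for full growth arrest is given as TGI.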

Tests used:
Test in all cases: growth of human tumour cells (NCI), 48 h
786-0 renal = test system: 786-0 renal
A498 renal = test system: A498 renal
A549 NSCLC = test system: A549 NSCLC
ACHN renal = test system: ACHN renal
BT-549 breast = test system: BT-549 breast
CAKI-1 renal = test system: CAKI-1 renal
CCRF-CEM leukemia = test system: CCRF-CEM leukemia
COLO 205 colon = test system: COLO 205 colon
DU-145 prostate = test system: DU-145 prostate
EKVX NSCLC = test system: EKVX NSCLC
HCC-2998 colon = test system: HCC-2998 colon
HCT-116 colon = test system: HCT-116 colon
HCT-15 colon = test system: HCT-15 colon
HL-60(TB) leukemia = test system: HL-60(TB) leukemia
HOP-62 NSCLC = test system: HOP-62 NSCLC
HOP-92 NSCLC = test system: HOP-92 NSCLC
HS 578T breast = test system: HS 578T breast
HT29 colon = test system: HT29 colon
IGROV1 ovarian = test system: IGROV1 ovarian
K-562 leukemia = test system: K-562 leukemia
KM12 colon = test system: KM12 colon
LOX IMVI melanoma = test system: LOX IMVI melanoma
M14 melanoma = test system: M14 melanoma
MALME-3M melanoma = test system: MALME-3M melanoma
MCF7 breast = test system: MCF7 breast
MDA-MB-231 breast = test system: MDA-MB-231 breast
MDA-MB-435 = test system: MDA-MB-435
MDA-N = test system: MDA-N
MOLT-4 leukemia = test system: MOLT-4 leukemia
NCI-H226 lung = test system: NCI-H226 lung
NCI-H23 lung = test system: NCI-H23 lung
NCI-H460 lung = test system: NCI-H460 lung
NCI-H522 lung = test system: NCI-H522 lung
NCI/ADR-RES ovarian = test system: NCI/ADR-RES ovarian
OVCAR-3 ovarian = test system: OVCAR-3 ovarian
OVCAR-4 ovarian = test system: OVCAR-4 ovarian
OVCAR-5 ovarian = test system: OVCAR-5 ovarian
OVCAR-8 ovarian = test system: OVCAR-8 ovarian
PC-3 prostate = test system: PC-3 prostate
RPMI-8226 leukemia = test system: RPMI-8226 leukemia
SF-268 CNS = test system: SF-268 CNS
SF-295 CNS = test system: SF-295 CNS
SF-539 CNS = test system: SF-539 CNS
SK-MEL-2 melanoma = test system: SK-MEL-2 melanoma
SK-MEL-28 melanoma = test system: SK-MEL-28 melanoma
SK-MEL-5 melanoma = test system: SK-MEL-5 melanoma
SK-OV-3 ovarian = test system: SK-OV-3 ovarian
SN12C renal = test system: SN12C renal
SNB-19 CNS = test system: SNB-19 CNS
SNB-75 CNS = test system: SNB-75 CNS
SR leukemia = test system: SR leukemia
SW-620 colon = test system: SW-620 colon
T-47D breast = test system: T-47D breast
U251 CNS = test system: U251 CNS
UACC-257 melanoma = test system: UACC-257 melanoma
UACC-62 melanoma = test system: UACC-62 melanoma
UO-31 renal = test system: UO-31 renal
RXF 393 renal = test system: RXF 393 renal
TK-10 renal = test system: TK-10 renal

Measured: TGI

COC(=O)C1C(OC(=O)c2ccccc2)CC2CCC1N2C(N)=O (stereo not given)
not listed: RXF 393 renal | TK-10 renal
> 100 µM: all other assays above

COC(=O)C1=CSC2(S1)C(C(=O)OC)=CSc1c2ssc1=Nc1ccccc1 (stereo not given)
7.26 µM: UACC-257 melanoma
7.96 µM: CCRF-CEM leukemia
6.09 µM: SNB-75 CNS
8.71 µM: SNB-19 CNS
9.9 µM: SK-OV-3 ovarian
6.12 µM: RXF 393 renal
2.87 µM: RPMI-8226 leukemia
7.38 µM: K-562 leukemia
10.1 µM: KM12 colon | U251 CNS
6.54 µM: A498 renal
8.67 µM: HOP-62 NSCLC
3.4 µM: NCI-H522 lung
4.95 µM: MALME-3M melanoma
5.13 µM: M14 melanoma
4.83 µM: IGROV1 ovarian
6.23 µM: OVCAR-8 ovarian
3.52 µM: UACC-62 melanoma
9.07 µM: SK-MEL-5 melanoma
17.7 µM: OVCAR-5 ovarian
14.6 µM: A549 NSCLC
3.56 µM: SR leukemia
7.36 µM: SK-MEL-2 melanoma
4.06 µM: HCT-116 colon
4.1 µM: LOX IMVI melanoma
8.34 µM: HS 578T breast
3.55 µM: MOLT-4 leukemia
5.85 µM: HT29 colon
16.2 µM: DU-145 prostate
6.57 µM: ACHN renal
3.8 µM: NCI/ADR-RES ovarian
8.76 µM: SW-620 colon
4.37 µM: COLO 205 colon
5.09 µM: MDA-MB-435
4.25 µM: HCC-2998 colon
22.6 µM: BT-549 breast
8.06 µM: OVCAR-4 ovarian
7.09 µM: SF-295 CNS
10.4 µM: TK-10 renal
2.96 µM: SF-539 CNS
3.87 µM: 786-0 renal
4.79 µM: MDA-MB-231 breast
4.3 µM: SN12C renal
8.43 µM: NCI-H23 lung
32.9 µM: CAKI-1 renal
5.76 µM: SK-MEL-28 melanoma
not listed: HCT-15 colon | HL-60(TB) leukemia | HOP-92 NSCLC | NCI-H226 lung
> 100 µM: all other assays above

CN(/N=C(\C(=O)O)c1ccccc1)C1=NCCCN1
not listed: M14 melanoma | SNB-19 CNS
> 100 µM: all other assays above

CSc1nc(N)c(NC2OC(CO)C(O)C2O)c(=O)[nH]1 (stereo not given)
not listed: ACHN renal | HCC-2998 colon | HOP-92 NSCLC | NCI-H23 lung
> 100 µM: all other assays above

COc1c2c(cc3oc(C)cc(=O)c13)OC(=N)C(C(N)=O)C2CC(=O)c1ccc(N)cc1 (stereo not given)
not listed: HOP-62 NSCLC | HT29 colon | NCI-H23 lung | SK-OV-3 ovarian
> 100 µM: all other assays above

Cc1n[nH]c(=O)c2cc(-c3ccccc3)[nH]c12
91.1 µM: SK-MEL-2 melanoma
71 µM: COLO 205 colon
96.6 µM: PC-3 prostate
92.3 µM: A498 renal
not listed: NCI-H522 lung | SK-MEL-28 melanoma
> 100 µM: all other assays above

CC1CCCc2c(C#N)c(N)nc(-c3ccc(Cl)cc3)c21 (stereo not given)
39.2 µM: RPMI-8226 leukemia
44.4 µM: HT29 colon | OVCAR-3 ovarian | SK-MEL-2 melanoma
79.7 µM: UO-31 renal
67.7 µM: COLO 205 colon
84.5 µM: MCF7 breast
66.4 µM: M14 melanoma
93.7 µM: NCI-H23 lung
38.2 µM: 786-0 renal | SN12C renal | UACC-62 melanoma
59 µM: NCI-H460 lung
43.2 µM: MOLT-4 leukemia
42.9 µM: PC-3 prostate
93.9 µM: MDA-N
72.8 µM: SR leukemia
49.2 µM: SF-295 CNS
33 µM: SF-539 CNS
43.3 µM: NCI-H226 lung
79.9 µM: UACC-257 melanoma
56.8 µM: IGROV1 ovarian
81.6 µM: SNB-75 CNS
38.4 µM: ACHN renal
85.1 µM: MALME-3M melanoma
83.3 µM: HL-60(TB) leukemia
81.8 µM: MDA-MB-231 breast
35.9 µM: SK-MEL-5 melanoma
36.3 µM: LOX IMVI melanoma
74.5 µM: T-47D breast
63.3 µM: OVCAR-5 ovarian
24.8 µM: HOP-62 NSCLC
21.5 µM: RXF 393 renal
not listed: A549 NSCLC | HCC-2998 colon | HOP-92 NSCLC | NCI-H522 lung | OVCAR-4 ovarian
> 100 µM: all other assays above
